ChEMBL document CHEMBL5126585, “Synthesis and evaluation of 1,2,3-dithiazole inhibitors of the nucleocapsid protein of feline immunodeficiency virus (FIV) as a model for HIV infection” (Bioorg Med Chem, 2022)

Assays:
[1] = Cytotoxicity against IL2 independent FL-4 cells assessed as reduction in cell viability measured after 7 days by MTT assay; type: toxicity, cell-based, Felis catus; settings: cat, time 7 day
[2] = test system: Feline immunodeficiency virus; experiment: Antiviral activity against Feline immunodeficiency virus infected in IL2 independent FL-4 cells assessed as reduction in viral replication treated for 7 days with daily replacement by qRT-PCR analysis; type: functional, organism-based; settings: FL-4, 168 h
[3] = Cytotoxicity against FEA cells assessed as reduction in cell viability incubated for 24 hrs by MTT assay; type: toxicity, cell-based, Felis catus; settings: cat
[4] = Therapeutic index, ratio of CC50 for cytotoxicity against IL2 independent FL-4 cells to EC50 for antiviral activity against Feline immunodeficiency virus infected in IL2 independent FL-4 cells; type: toxicity, cell-based; settings: cat; read-out: Ratio CC50/EC50
[5] = Cytotoxicity against CRFK cells assessed as reduction in cell viability incubated for 24 hrs by MTT assay; type: toxicity, cell-based, Felis catus; settings: cat

With `CCCCOc1ccc(/N=c2\ssnc2Cl)cc1` the CC50 at 168 h [1] was > 100 µM, the EC50 [2] was 26 µM and the CC50 at 24 h [3] was > 100 µM. For the same molecule, the selectivity ratio [4] was > 3.8 and the CC50 at 24 h [5] was > 100 µM.
In the case of `Clc1nss/c1=N\c1cc(-c2ccccc2)nn1Cc1ccccc1`, the CC50 at 168 h [1] is reported as 53 µM, the EC50 [2] is reported as 31 µM and the CC50 at 24 h [3] is reported as 29 µM. For the same molecule, the selectivity ratio [4] was 1.7 and the CC50 at 24 h [5] was 37 µM.
`CCOc1cccnc1/N=c1\ssnc1Cl` gave a CC50 at 168 h [1] of 49 µM, an EC50 [2] of 0.55 µM and a CC50 at 24 h [3] of 45 µM. It also gave a selectivity ratio [4] of 90 and a CC50 at 24 h [5] of 42 µM.
For `Cc1cc(OC(F)(F)F)ccc1/N=c1\ssnc1Cl`, the CC50 at 168 h [1] was > 100 µM, the EC50 [2] was > 100 µM and the CC50 at 24 h [3] was > 100 µM. For the same molecule, the CC50 at 24 h [5] was > 100 µM.
`Cc1cc(/N=c2\ssnc2Cl)n[nH]1` showed a CC50 at 168 h [1] of 50 µM, an EC50 [2] of 0.083 µM and a CC50 at 24 h [3] of 55 µM. The selectivity ratio [4] was 600 and the CC50 at 24 h [5] was > 100 µM.
For `FC(F)(F)Oc1ccc(/N=c2\ssnc2Cl)cc1Br`, the CC50 at 168 h [1] was > 100 µM, the EC50 [2] was > 100 µM and the CC50 at 24 h [3] was > 100 µM. The CC50 at 24 h [5] was > 100 µM.
For `N#Cc1ccc(/N=c2\ssnc2Cl)cc1`, the CC50 at 168 h [1] was > 100 µM, the EC50 [2] was 0.62 µM and the CC50 at 24 h [3] was 50 µM. For the same molecule, the selectivity ratio [4] was > 160 and the CC50 at 24 h [5] was 31 µM.
Work on `Clc1ccc(/N=c2\ssnc2Cl)cc1` yielded a CC50 at 168 h [1] of 45 µM, an EC50 [2] of 0.57 µM and a CC50 at 24 h [3] of 51 µM. For the same molecule, the selectivity ratio [4] was 79 and the CC50 at 24 h [5] was > 100 µM.
In the case of `FC(F)(F)c1ccc(/N=c2\ssnc2Cl)cc1`, the CC50 at 168 h [1] is reported as > 100 µM, the EC50 [2] is reported as 15 µM and the CC50 at 24 h [3] is reported as > 100 µM. For the same molecule, the selectivity ratio [4] was > 6.7 and the CC50 at 24 h [5] was > 100 µM.
With `Fc1ccc(F)c(/N=c2\ssnc2Cl)c1` the CC50 at 168 h [1] was 89 µM, the EC50 [2] was 0.68 µM and the CC50 at 24 h [3] was > 100 µM. For the same molecule, the selectivity ratio [4] was 131 and the CC50 at 24 h [5] was > 100 µM.
For `Clc1nss/c1=N\c1ccccc1Br`, the CC50 at 168 h [1] was 39 µM, the EC50 [2] was 12 µM and the CC50 at 24 h [3] was > 100 µM. The selectivity ratio [4] was 3.3 and the CC50 at 24 h [5] was > 100 µM.
For `Clc1nss/c1=N\c1ccc(I)cc1`, the CC50 at 168 h [1] was 49 µM, the EC50 [2] was 0.38 µM and the CC50 at 24 h [3] was 44 µM. It also gave a selectivity ratio [4] of 129 and a CC50 at 24 h [5] of 73 µM.
Work on `COc1cccc(/N=c2\ssnc2Cl)n1` yielded a CC50 at 168 h [1] of 47 µM, an EC50 [2] of 0.26 µM and a CC50 at 24 h [3] of 4.3 µM. For the same molecule, the selectivity ratio [4] was 178 and the CC50 at 24 h [5] was 34 µM.
With `Clc1ccccc1/N=c1\ssnc1Cl` the CC50 at 168 h [1] was 51 µM, the EC50 [2] was 20 µM and the CC50 at 24 h [3] was 25 µM. For the same molecule, the selectivity ratio [4] was 2.6 and the CC50 at 24 h [5] was > 100 µM.
With `Clc1nss/c1=N\c1ccc(OCc2ccccc2)cc1` the CC50 at 168 h [1] was 44 µM, the EC50 [2] was 23 µM and the CC50 at 24 h [3] was 74 µM. The selectivity ratio [4] was 1.9 and the CC50 at 24 h [5] was > 100 µM.
With `Clc1nss/c1=N\c1cccc(Br)c1` the CC50 at 168 h [1] was > 100 µM, the EC50 [2] was > 100 µM and the CC50 at 24 h [3] was > 100 µM. For the same molecule, the CC50 at 24 h [5] was > 100 µM.
